Test system: Mycobacterium tuberculosis
Test: Antitubercular activity against autoluminescent Mycobacterium tuberculosis H37Rv assessed as reduction in microbial growth by two-fold serial dilution method
Type: functional

| Structure (SMILES) | MIC |
| --- | --- |
| CO[C@H]1/C=C/O[C@@]2(C)Oc3c(C)c(O)c4c(O)c(c(/C=N/N5CCN(C)CC5)c(O)c4c3C2=O)NC(=O)/C(C)=C\C=C\[C@H](C)[C@H](O)[C@@H](C)[C@@H](O)[C@@H](C)[C@H](OC(C)=O)[C@@H]1C [RIFAMPIN] | 0.06 µM |
| Cc1ccccc1/C=C/C(=O)N[C@@H]1C(=O)N[C@@H](CO)C(=O)N[C@@H](Cc2c[nH]c3ccccc23)C(=O)N[C@H](CC(N)=O)C(=O)N[C@@H]([C@@H](O)c2ccccc2)C(=O)N2CCC[C@H]2C(=O)N[C@H](C(C)C)C(=O)NCC(=O)N[C@H](CC(C)C)C(=O)N[C@H](Cc2ccc(O)cc2)C(=O)O[C@@H]1C | 14.8 µM |
| C/C=C/[C@H](O)[C@H](O)c1ccccc1/C=C/C(=O)N[C@@H]1C(=O)N[C@@H](CO)C(=O)N[C@H](CC(C)C)C(=O)N[C@@H]([C@H](O)c2ccccc2)C(=O)N[C@@H](CO)C(=O)N[C@H]([C@@H](C)O)C(=O)N[C@H](CO)C(=O)N[C@H](c2ccc(O)cc2)C(=O)N[C@@H](C(C)C)C(=O)N[C@H](CC(C)C)C(=O)O[C@H]1C | 1.9 µM |
| C/C=C/C=C/c1ccccc1/C=C/C(=O)N[C@@H]1C(=O)N[C@@H](CO)C(=O)N[C@@H](Cc2c[nH]c3ccccc23)C(=O)N[C@H](CC(N)=O)C(=O)N[C@@H]([C@@H](O)c2ccccc2)C(=O)N2CCC[C@H]2C(=O)N[C@H](C(C)C)C(=O)NCC(=O)N[C@H](CC(C)C)C(=O)N[C@H](Cc2ccc(O)cc2)C(=O)O[C@@H]1C | 2.3 µM |

— ChEMBL document CHEMBL4627379, “Production of Antitubercular Depsipeptides via Biosynthetic Engineering of Cinnamoyl Units” (2020)
